# How the values were obtained:
# [1] = system: putrescine N-methyltransferase ("PMT") / highly purified tobacco protein; assay: Substrate specificity test: analogs substituted for putrescine in the standard PMT assay; type: biochemical, Nicotiana tabacum L. var. Burley 21; conditions: for radioactive product formed when substituted for putrescine: standard PMT assay, 30° C., 30 minutes
# Method: (§1) The reaction was started by addition of the enzyme sample, and it was carried out at 30° C. for 30 minutes. The reaction was stopped by addition of 0.5 ml of 10% (w/v) NaOH saturated with NaCl.
# (§2) The radioactive product, N-[^14 C-methyl]putrescine, was separated from the substrate by solvent extraction into chloroform. After vortexing the stopped reaction mixture with 1 ml of chloroform for 90 seconds, the organic and aqueous phases were separated by centrifugation at 1600×gav for 5 minutes. A 0.5 ml aliquot of the organic phase was then assayed. The 0.5 ml aliquot of the organic phase was added to 9.5 ml of liquid scintillation cocktail (Beckman Instruments, Columbia, Md.) and radioactivity was measured by standard procedures with a liquid scintillation counter.
# (§3) One unit of apparent PMT activity is defined as one nanomole of product formed per 30 min., at 30° C.
# (§4) Negative controls were included with all PMT assays. Negative controls consisted of reaction mixtures minus enzyme, or reaction stopped with NaOH at time zero.
# Substrate specificity tests were carried out with the highly purified tobacco protein of the present invention. 1,3-Diaminopropane and 1,5-diaminopentane (chemical analogs of putrescine) phosphatidylethanolamine (a methyl group acceptor), and N-methylputrescine(the normal product of PMT), were compared with putrescine (1,4-diaminobutane) for ability to serve as an apparent substrate for PMT.
# [2] = system: putrescine N-methyltransferase ("PMT") / subject tobacco protein; assay: Apparent Km determination in the apparent PMT activity assay; type: biochemical, Nicotiana tabacum L. var. Burley 21; conditions: partially purified tobacco protein; S-adenosylmethionine in excess
# Method: as §1, §2, §3, §4
Molecule,radioactive product formed when substituted for putrescine [1],other results
"NCCCN [1,3-diaminopropane, 1,3-Diaminopropane]",no detectable amount of radioactive product was formed,
"NCCCCCN [1,5-diaminopentane]",no detectable amount of radioactive product was formed,
CNCCCCN [N-methylputrescine],,radioactive product formation relative to that observed with putrescine ([1]; substituted for putrescine in the PMT assay): less than 6%
"NCCCCN [putrescine, 1,4-diaminobutane]",,Km [2]: ~400 µM
phosphatidylethanolamine,no detectable amount of radioactive product was formed,

# Reference: patent US5668295A, “Protein involved in nicotine synthesis, DNA encoding, and use of sense and antisense DNAs corresponding thereto to affect nicotine content in transgenic tobacco cells and plants” (Philip Morris Incorporated, priority 1995, dated 1997)
